We go through 2 compounds from article PMC12060275, “Biochemical, Structural, and Conformational Characterization of a Fungal Ethylene-Forming Enzyme” (Biochemistry, 2025).

In assay [1] the target is T1, PK2 EFE (Pseudomonas savastanoi, UniProt P32021). The conditions noted are these: 1 mM 2OG, 1 mM L-Arg, 0.4 mM Fe(II), 1 mM L-ascorbate, 25 mM HEPES pH 7.5, room temperature.
Assay [2] addresses T1, PK2 EFE. The experiment in a line: succinate production by LC-MS/MS versus 2OG concentration. The format is biochemical. Also on record: recombinant from E. coli, His6 tag removed with TEV protease, apoprotein after EDTA/DTT treatment. The settings on record: no L-Arg (uncoupled decarboxylation), 0.2 mM Fe(II), 0.4 mM L-ascorbate, 25 mM HEPES pH 7.5, 22 °C.

T1 sequence (P32021 whole entry): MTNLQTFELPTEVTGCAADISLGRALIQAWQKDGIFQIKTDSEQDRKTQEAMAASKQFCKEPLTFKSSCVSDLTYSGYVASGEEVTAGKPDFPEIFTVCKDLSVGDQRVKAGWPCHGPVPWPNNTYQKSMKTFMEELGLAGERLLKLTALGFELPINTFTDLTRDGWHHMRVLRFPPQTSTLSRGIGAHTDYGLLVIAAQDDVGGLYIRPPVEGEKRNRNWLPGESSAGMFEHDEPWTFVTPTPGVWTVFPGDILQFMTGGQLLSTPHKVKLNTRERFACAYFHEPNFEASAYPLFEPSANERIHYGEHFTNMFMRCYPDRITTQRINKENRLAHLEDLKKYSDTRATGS

As for `N=C(N)NCCC[C@H](N)C(=O)O` [L-Arg], the “ethylene by GC and P5C by 2-aminobenzaldehyde assay (partition ratio)” value on PK2 EFE [1] is “we compared the ethylene/P5C partition ratios for PK2 EFE and Pd1 EFE”.

On to `O=C(O)CCC(=O)C(=O)O` [2OG], for which, at PK2 EFE [2], the “succinate production by LC-MS/MS versus 2OG concentration” value is “such an uncoupled reaction occurs in both Pd1 and PK2 versions of EFE”.
